Source: patent US10781184B2, “Substituted benzazinones as antibacterial compounds” (GlaxoSmithKline Intellectual Property Development Limited, priority 2015, dated 2020)
In brackets after ≈: the same amount, converted by molar mass.

How the values were obtained:
Experiment in all cases: Minimum Inhibitory Concentration Assay (broth microdilution, CLSI)
Format in all cases: cell-based
K. pneumoniae 1161486 = conditions: Klebsiella pneumoniae; strain 1161486, broth microdilution; read-out: K. pneumoniae 1161486 MIC
Protocol: (§1) Methods for dilution Antimicrobial Susceptibility TestS for Bacteria that Grow Aerobically; Approved Standard-Ninth Edition; M7-A9, Vol. 32 No. 2, Clinical and Laboratory Standards Institute, Wayne, Pa.; January 2012.
(§2) Performance Standards for Antimicrobial Susceptibility Testing; Twenty-Second Informational Supplement; M100-S22 Vol. 32 No. 3; Clinical and Laboratory Standards Institute, Wayne, Pa., January 2012.
(§3) Broth microdilution was performed in accordance with the CLSI recommended procedures for aerobic bacteria [CLSI, 2012].
(§4) Comparator compound stock solutions were prepared as recommended by CLSI [CLSI, 2012]. The stock solutions of novel GSK compounds were prepared at 512 mcg/mL by dissolving the compounds in dimethyl sulfoxide (DMSO) and diluting 1:10 with sterile water. The 512 mcg/mL stock was further serially diluted in the recommended broth media for the organisms being tested. Final DMSO concentration in test wells was less than 1%.
(§5) Microtitre plates were prepared using the Microlab STAR™ (Hamilton Co., Reno, Nev.) to add media (50 μL) and the Microlab AT Plus system (Hamilton Co., Reno, Nev.) to serially dilute the compounds (final concentration range 0.125 to 128 mcg/mL) and to add inoculum. A positive growth control well containing medium and the test isolate was included on each microtitre plate. Ten microliters of the test medium from the positive growth control well was plated to determine the purity of each test isolate. A microtitre mirror reader (Cooke Instruments, Ltd., England) was used to assist in determining the microdilution MIC endpoints. The MIC was determined as the lowest concentration of compound that inhibited visible growth of the organism.

E. coli 7623 = conditions: Escherichia coli; strain 7623, broth microdilution; read-out: E. coli 7623 MIC
Protocol: as §1, §2, §3, §4, §5

P. aeruginosa PA01 = conditions: Pseudomonas aeruginosa; strain PA01, broth microdilution; read-out: P. aeruginosa PA01 MIC
Protocol: as §1, §2, §3, §4, §5

| SMILES | MIC (K. pneumoniae 1161486) [µg/mL] | MIC (E. coli 7623) [µg/mL] | MIC (P. aeruginosa PA01) [µg/mL] |
| --- | --- | --- | --- |
| C[C@@](CCn1cnc2cc(-c3ccc(CCO)cc3F)ccc2c1=O)(C(=O)NO)S(C)(=O)=O [Example 45, (2R)-4-{7-[2-fluoro-4-(2-hydroxyethyl)phenyl]-4-oxo-3,4-dihydroquinazolin-3-yl}-N-hydroxy-2-methanesulfonyl-2-methylbutanamide] | 1 (≈ 2.09 µM) | 0.063 (≈ 0.132 µM) | 1 (≈ 2.09 µM) |
| CCOc1ccc(-c2ccc3c(=O)n(CC[C@](C)(C(=O)NO)S(C)(=O)=O)cnc3c2)cc1 [Example 46, (2R)-4-[7-(4-ethoxyphenyl)-4-oxo-3,4-dihydroquinazolin-3-yl]-N-hydroxy-2-methanesulfonyl-2-methylbutanamide] | 0.125 (≈ 0.272 µM) | < 0.03 | 1 (≈ 2.18 µM) |
| COCc1ccc(-c2ccc3c(=O)n(CC[C@](C)(C(=O)NO)S(C)(=O)=O)cnc3c2)cc1 [Example 47, (2R)—N-hydroxy-2-methanesulfonyl-4-{7-[4-(methoxymethyl)phenyl]-4-oxo-3,4-dihydroquinazolin-3-yl}-2-methylbutanamide] | 0.125 (≈ 0.272 µM) | 0.063 (≈ 0.137 µM) | 0.5 (≈ 1.09 µM) |
| COCCc1ccc(-c2ccc3c(=O)n(CC[C@](C)(C(=O)NO)S(C)(=O)=O)cnc3c2)c(F)c1 [Example 48, (2R)-4-{7-[2-fluoro-4-(2-methoxyethyl)phenyl]-4-oxo-3,4-dihydroquinazolin-3-yl}-N-hydroxy-2-methanesulfonyl-2-methylbutanamide] | 0.125 (≈ 0.254 µM) | < 0.03 | 1 (≈ 2.03 µM) |
| CONCc1ccc(-c2ccc3c(=O)n(CC[C@](C)(C(=O)NO)S(C)(=O)=O)cnc3c2)c(F)c1 [Example 50, (2R)-4-(7-{2-fluoro-4-[(methoxyamino)methyl]phenyl}-4-oxo-3,4-dihydroquinazolin-3-yl)-N-hydroxy-2-methanesulfonyl-2-methylbutanamide] | 0.5 (≈ 1.02 µM) | 0.125 (≈ 0.254 µM) | 2 (≈ 4.06 µM) |
| CCONCc1ccc(-c2ccc3c(=O)n(CC[C@](C)(C(=O)NO)S(C)(=O)=O)cnc3c2)c(F)c1 [Example 51, (2R)-4-(7-{4-[(ethoxyamino)methyl]-2-fluorophenyl}-4-oxo-3,4-dihydroquinazolin-3-yl)-N-hydroxy-2-methanesulfonyl-2-methylbutanamide] | 0.5 (≈ 0.987 µM) | 0.125 (≈ 0.247 µM) | 2 (≈ 3.95 µM) |
| CON(C)Cc1ccc(-c2ccc3c(=O)n(CC[C@](C)(C(=O)NO)S(C)(=O)=O)cnc3c2)cc1 [Example 52, (2R)—N-hydroxy-2-methanesulfonyl-4-[7-(4-{[methoxy(methyl)amino]methyl}phenyl)-4-oxo-3,4-dihydroquinazolin-3-yl]-2-methylbutanamide] | 0.25 (≈ 0.512 µM) | 0.063 (≈ 0.129 µM) | 8 (≈ 16.4 µM) |
| COc1ccc(-c2ccc3c(=O)n(CC[C@](C)(C(=O)NO)S(C)(=O)=O)ccc3c2)cc1 [Example 53, (2R)—N-hydroxy-2-methanesulfonyl-4-[6-(4-methoxyphenyl)-1-oxo-1,2-dihydroisoquinolin-2-yl]-2-methylbutanamide] | 0.25 (≈ 0.562 µM) | < 0.03 | 0.5 (≈ 1.12 µM) |
| Cc1ccc(-c2ccc3c(=O)n(CC[C@](C)(C(=O)NO)S(C)(=O)=O)ccc3c2)cc1 [Example 54, (2R)—N-hydroxy-2-methanesulfonyl-2-methyl-4-[6-(4-methylphenyl)-1-oxo-1,2-dihydroisoquinolin-2-yl]butanamide] | 0.5 (≈ 1.17 µM) | < 0.03 | 1 (≈ 2.33 µM) |
| COc1ccc(-c2ccc3c(=O)n(CC[C@](C)(C(=O)NO)S(C)(=O)=O)ccc3c2)c(F)c1 [Example 55, (2R)-4-[6-(2-fluoro-4-methoxyphenyl)-1-oxo-1,2-dihydroisoquinolin-2-yl]-N-hydroxy-2-methanesulfonyl-2-methylbutanamide] | 0.063 (≈ 0.136 µM) | < 0.03 | 1 (≈ 2.16 µM) |
| C[C@@](CCn1ccc2cc(-c3ccccc3)ccc2c1=O)(C(=O)NO)S(C)(=O)=O [Example 56, (2R)—N-hydroxy-2-methanesulfonyl-2-methyl-4-(1-oxo-6-phenyl-1,2-dihydroisoquinolin-2-yl)butanamide] | 0.125 (≈ 0.302 µM) | 0.063 (≈ 0.152 µM) | 0.5 (≈ 1.21 µM) |
| C[C@@](CCn1ccc2cc(-c3ccc4c(c3)COC4)ccc2c1=O)(C(=O)NO)S(C)(=O)=O [Example 57, (2R)-4-[6-(1,3-dihydro-2-benzofuran-5-yl)-1-oxo-1,2-dihydroisoquinolin-2-yl]-N-hydroxy-2-methanesulfonyl-2-methylbutanamide] | 0.25 (≈ 0.548 µM) | 0.063 (≈ 0.138 µM) | 2 (≈ 4.38 µM) |
| Cc1cnc(-c2ccc3c(=O)n(CC[C@](C)(C(=O)NO)S(C)(=O)=O)ccc3c2)s1 [Example 58, (2R)—N-hydroxy-2-methanesulfonyl-2-methyl-4-[6-(5-methyl-1,3-thiazol-2-yl)-1-oxo-1,2-dihydroisoquinolin-2-yl]butanamide] | 1 (≈ 2.3 µM) | 0.063 (≈ 0.145 µM) | 4 (≈ 9.18 µM) |
| C[C@@](CCn1ccc2cc(-c3ccc(C#N)cc3F)ccc2c1=O)(C(=O)NO)S(C)(=O)=O [Example 59, (2R)-4-[6-(4-cyano-2-fluorophenyl)-1-oxo-1,2-dihydroisoquinolin-2-yl]-N-hydroxy-2-methanesulfonyl-2-methylbutanamide] | 0.125 (≈ 0.273 µM) | 0.063 (≈ 0.138 µM) | 0.5 (≈ 1.09 µM) |
| COc1ccc(-c2ccc3c(=O)n(CC[C@](C)(C(=O)NO)S(C)(=O)=O)ccc3c2)cn1.Cl [Example 60, (2R)—N-hydroxy-2-methanesulfonyl-4-[6-(6-methoxypyridin-3-yl)-1-oxo-1,2-dihydroisoquinolin-2-yl]-2-methylbutanamide] | 0.5 | < 0.03 | 0.5 |
| CN(C)c1ccc(-c2ccc3c(=O)n(CC[C@](C)(C(=O)NO)S(C)(=O)=O)ccc3c2)cc1 [Example 61, (2R)-4-{6-[4-(dimethylamino)phenyl]-1-oxo-1,2-dihydroisoquinolin-2-yl}-N-hydroxy-2-methanesulfonyl-2-methylbutanamide] | 1 (≈ 2.19 µM) | < 0.03 | > 32 |
| CN(C)c1ccc(-c2ccc3c(=O)n(CC[C@](C)(C(=O)NO)S(C)(=O)=O)ccc3c2)cn1 [Example 62, (2R)-4-{6-[6-(dimethylamino)pyridin-3-yl]-1-oxo-1,2-dihydroisoquinolin-2-yl}-N-hydroxy-2-methanesulfonyl-2-methylbutanamide] | 0.5 (≈ 1.09 µM) | 0.125 (≈ 0.273 µM) | 8 (≈ 17.4 µM) |
| CN(C)c1ncc(-c2ccc3c(=O)n(CC[C@](C)(C(=O)NO)S(C)(=O)=O)ccc3c2)cn1 [Example 63, (2R)-4-{6-[2-(dimethylamino)pyrimidin-5-yl]-1-oxo-1,2-dihydroisoquinolin-2-yl}-N-hydroxy-2-methanesulfonyl-2-methylbutanamide] | 1 (≈ 2.18 µM) | 0.125 (≈ 0.272 µM) | 4 (≈ 8.7 µM) |
| CN(C)Cc1ccc(-c2ccc3c(=O)n(CC[C@](C)(C(=O)NO)S(C)(=O)=O)ccc3c2)c(F)c1 [Example 65, (2R)-4-(6-{4-[(dimethylamino)methyl]-2-fluorophenyl}-1-oxo-1,2-dihydroisoquinolin-2-yl)-N-hydroxy-2-methanesulfonyl-2-methylbutanamide] | 0.5 (≈ 1.02 µM) | 0.25 (≈ 0.511 µM) | 4 (≈ 8.17 µM) |
| COCCN(C)Cc1ccc(-c2ccc3c(=O)n(CC[C@](C)(C(=O)NO)S(C)(=O)=O)ccc3c2)c(F)c1 [Example 66, (2R)-4-[6-(2-fluoro-4-{[(2-methoxyethyl)(methyl)amino]methyl}phenyl)-1-oxo-1,2-dihydroisoquinolin-2-yl]-N-hydroxy-2-methanesulfonyl-2-methylbutanamide] | 0.125 (≈ 0.234 µM) | 0.063 (≈ 0.118 µM) | 1 (≈ 1.87 µM) |
| COCCNCc1ccc(-c2ccc3c(=O)n(CC[C@](C)(C(=O)NO)S(C)(=O)=O)ccc3c2)c(F)c1 [Example 67, (2R)-4-[6-(2-fluoro-4-{[(2-methoxyethyl)amino]methyl}phenyl)-1-oxo-1,2-dihydroisoquinolin-2-yl]-N-hydroxy-2-methanesulfonyl-2-methylbutanamide] | 1 (≈ 1.92 µM) | 0.125 (≈ 0.241 µM) | 1 (≈ 1.92 µM) |
| COCCCN(C)Cc1ccc(-c2ccc3c(=O)n(CC[C@](C)(C(=O)NO)S(C)(=O)=O)ccc3c2)c(F)c1.Cl [Example 70, (2R)-4-[6-(2-fluoro-4-{[(3-methoxypropyl)(methyl)amino]methyl}phenyl)-1-oxo-1,2-dihydroisoquinolin-2-yl]-N-hydroxy-2-methanesulfonyl-2-methylbutanamide] | 0.25 | 0.125 | 2 |
| COCCNCc1ccc(-c2ccc3c(=O)n(CC[C@](C)(C(=O)NO)S(C)(=O)=O)ccc3c2)c(F)c1F [Example 71, (R)-4-(6-(2,3-difluoro-4-(((2-methoxyethyl)amino)methyl)phenyl)-1-oxoisoquinolin-2(1H)-yl)-N-hydroxy-2-methyl-2-(methylsulfonyl)butanamide] | 0.5 (≈ 0.93 µM) | 0.063 (≈ 0.117 µM) | 0.5 (≈ 0.93 µM) |
